pIC50: −log10 of the molar value. Non-standard residues stand in square brackets, D forms with d. Residues, ends and D or L forms follow the SMILES beside them. Aun = NCCCCCCCCCCC(=O)O
Tests used:
[1] = molecular target: thrombin-stimulated platelets (Homo sapiens, UniProt P05106+P08514); experiment: Fibrinogen-Binding Assay (125I-fibrinogen binding to platelets); conditions: 125I-fibrinogen 0.176 μmol/liter, thrombin-stimulated platelets; read-out: Inhibition of 125I-Fibrinogen Binding to Platelets IC50
Sequence of thrombin-stimulated platelets (P08514 32-1039): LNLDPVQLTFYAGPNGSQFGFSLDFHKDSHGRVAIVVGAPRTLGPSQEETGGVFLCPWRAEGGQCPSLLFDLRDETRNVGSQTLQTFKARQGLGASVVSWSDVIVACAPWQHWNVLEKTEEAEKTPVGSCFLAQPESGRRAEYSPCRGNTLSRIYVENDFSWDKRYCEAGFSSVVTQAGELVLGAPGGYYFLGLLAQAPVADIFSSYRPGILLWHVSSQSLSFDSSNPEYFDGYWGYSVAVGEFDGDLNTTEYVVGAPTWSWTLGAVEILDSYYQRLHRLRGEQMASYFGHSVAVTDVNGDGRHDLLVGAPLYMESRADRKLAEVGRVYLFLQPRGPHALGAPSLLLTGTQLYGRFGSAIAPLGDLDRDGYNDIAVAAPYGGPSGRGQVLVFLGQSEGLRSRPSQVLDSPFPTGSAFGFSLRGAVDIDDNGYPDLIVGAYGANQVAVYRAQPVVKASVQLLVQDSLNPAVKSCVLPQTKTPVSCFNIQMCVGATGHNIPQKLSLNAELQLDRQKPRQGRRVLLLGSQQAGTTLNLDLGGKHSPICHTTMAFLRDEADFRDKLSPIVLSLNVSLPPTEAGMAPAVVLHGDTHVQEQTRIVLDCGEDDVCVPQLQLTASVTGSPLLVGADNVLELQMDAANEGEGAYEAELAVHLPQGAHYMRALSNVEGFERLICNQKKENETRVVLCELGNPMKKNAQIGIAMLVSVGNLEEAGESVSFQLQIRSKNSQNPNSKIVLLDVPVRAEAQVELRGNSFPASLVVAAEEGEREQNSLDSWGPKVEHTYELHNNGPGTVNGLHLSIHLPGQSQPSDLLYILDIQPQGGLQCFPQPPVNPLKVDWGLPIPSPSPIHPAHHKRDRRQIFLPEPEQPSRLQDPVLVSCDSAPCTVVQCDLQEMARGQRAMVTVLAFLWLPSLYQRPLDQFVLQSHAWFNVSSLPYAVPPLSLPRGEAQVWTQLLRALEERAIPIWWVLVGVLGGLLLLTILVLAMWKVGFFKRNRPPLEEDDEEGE
Sequence of thrombin-stimulated platelets (P05106 27-788): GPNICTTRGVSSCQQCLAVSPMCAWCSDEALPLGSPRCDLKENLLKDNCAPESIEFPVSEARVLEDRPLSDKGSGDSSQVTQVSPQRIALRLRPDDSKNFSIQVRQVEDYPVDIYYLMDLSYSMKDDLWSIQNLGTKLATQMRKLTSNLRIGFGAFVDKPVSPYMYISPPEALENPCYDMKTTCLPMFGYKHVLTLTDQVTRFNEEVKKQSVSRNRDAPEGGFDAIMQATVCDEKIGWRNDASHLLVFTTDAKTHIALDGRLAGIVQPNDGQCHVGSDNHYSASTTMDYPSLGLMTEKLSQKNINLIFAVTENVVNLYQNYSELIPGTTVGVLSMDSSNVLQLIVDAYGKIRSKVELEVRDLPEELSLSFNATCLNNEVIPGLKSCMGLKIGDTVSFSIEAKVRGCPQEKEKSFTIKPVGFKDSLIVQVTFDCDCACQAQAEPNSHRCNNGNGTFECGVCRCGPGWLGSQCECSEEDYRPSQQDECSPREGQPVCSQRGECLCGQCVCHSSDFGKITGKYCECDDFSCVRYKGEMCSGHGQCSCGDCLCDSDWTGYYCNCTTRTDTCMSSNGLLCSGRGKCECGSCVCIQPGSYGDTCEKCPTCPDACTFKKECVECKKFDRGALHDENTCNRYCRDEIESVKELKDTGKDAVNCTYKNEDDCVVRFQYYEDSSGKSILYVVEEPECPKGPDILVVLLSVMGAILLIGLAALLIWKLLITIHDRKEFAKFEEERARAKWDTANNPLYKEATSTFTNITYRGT
Method: Platelets are washed free of plasma constituents by the albumin density-gradient technique of Walsh, P. N., et al., Br. J. Haematol. […] After these additions, the final platelet count in the mixture is 1×10^11 /liter. After incubation for an additional 30 minutes at 22°-25° C., bound and free ligand are separated by centrifuging 50 μl of the mixture through 300 μl of 20% sucrose at 12,000×g for 4 minutes. The platelet pellet is then separated from the rest of the mixture to determine platelet-bound radioactivity. Nonspecific binding is measured in mixtures containing an excess of unlabeled ligand. […] The IC50 is derived by plotting residual fibrinogen binding against the logarithm of the sample compound's concentration.

[2] = molecular target: fixed activated platelets (Homo sapiens, UniProt P05106+P08514); experiment: Platelet Aggregation Assay (fibrinogen-mediated aggregation of fixed-activated platelets); format: cell-based; conditions: for pIC50: fixed activated platelets, human fibrinogen 250 μg/ml, read-out: Inhibition of Fibrinogen Mediated Platelet Aggregation IC50; for inhibition at 25 µM: read-out: Inhibition of Fibrinogen Mediated Platelet Aggregation % inhibition at 25 μM; for inhibition at 100 µM: read-out: Inhibition of Fibrinogen Mediated Platelet Aggregation % inhibition at 100 μM
Sequence of fixed activated platelets (P08514 32-1039): as the sequence (P08514 32-1039) above
Sequence of fixed activated platelets (P05106 27-788): as the sequence (P05106 27-788) above
Method: PLATELET AGGREGATION ASSAY
Preparation of Fixed-Activated Platelets
To the activated platelets is added paraformaldehyde to a final concentration of 0.50% and this incubated at room temperature for 30 minutes. The fixed activated platelets are then collected by centrifugation at 650×g for 15 minutes.
Platelet Aggregation Assay
The fixed activated platelets are incubated with a selected dose of the compound to be tested for platelet aggregation inhibition for one minute and aggregation initiated by addition of human fibrinogen to a final concentration of 250 μg/ml. A platelet aggregation profiler Model PAP-4 is used to record the platelet aggregation.

Row | SMILES | pIC50 [1] | pIC50 [2] | inhibition at 25 µM [2] | inhibition at 100 µM [2]
1 | CC[C@H](C)[C@H](NC(=O)[C@H](CC(=O)O)NC(=O)CCCCCCCCNC(=N)N)C(=O)O [9-Guanidinononanoyl-L-aspartyl-L-isoleucine] | 6.42 | 5.38 | 93% | –
2 | CC(C)[C@H](NC(=O)[C@H](CC(=O)O)NC(=O)CCCCCCCCCn1ccnc1)C(=O)O [10-(Imidazol-1-yl)decanoyl-L-aspartyl-L-valine] | 4.70 | < 4.60 | 45% | –
3 | N=C(N)NCCCCCCCCC(=O)N[C@@H](CC(=O)O)C(=O)N[C@@H](CCCNC(=N)N)C(=O)O [9-Guanidinononanoyl-L-aspartyl-L-arginine] | 6.89 | 6.59 | 97% | –
4 | CCN(CC(=O)N[C@@H](CC(=O)O)C(=O)N[C@@H](Cc1c[nH]c2ccccc12)C(=O)O)C(=O)CCCCCNC(=N)N [6-Guanidinohexanoyl-N-(ethyl)glycyl-L-aspartyl-L-tryptophan] | 6.89 | 5.89 | 91% | –
5 | CC[C@H](C)[C@H](NC(=O)[C@H](CC(=O)O)NC(=O)CCCCCCCCNC(=N)N)C(=O)N[C@@H](CCCNC(=N)N)C(=O)O [9-Guanidinononanoyl-L-aspartyl-isoleucyl-arginine] | 6.43 | 6.17 | 94% | –
6 | CCN(CC(=O)N[C@@H](CC(=O)O)C(=O)N[C@H](C(=O)O)C(C)C)C(=O)CCCCCCn1ccnc1 [7-(Imidazol-1-yl)heptanoyl-N-(ethyl)glycyl-L-aspartyl-L-valine] | 5.89 | 4.97 | 82% | –
7 | CC(C)[C@H](NC(=O)[C@H](CC(=O)O)NC(=O)CNC(=O)CCCCCn1ccnc1)C(=O)O [6-(Imidazol-1-yl)-hexanoyl-glycyl-L-aspartyl L-valine] | 5.55 | 4.77 | 67% | –
8 | CC(C)C[C@H](NC(=O)[C@H](CC(=O)O)NC(=O)CCCCCCCCNC(=N)N)C(=O)O [9-guanidinononanoyl-L-aspartyl-L-leucine] | 6.40 | 6.23 | 95% | –
9 | CC(C)[C@H](NC(=O)[C@H](CC(=O)O)NC(=O)CCCCCCCCn1ccnc1)C(=O)O [9-(Imidazol-1-yl)-nonanoyl-L-aspartyl-L-valine] | 6.30 | 5.47 | 96% | –
10 | CC(C)CNC(=O)[C@H](CC(=O)O)NC(=O)CNC(=O)[C@@H](N)CCCNC(=N)N [L-arginylglycyl-L-aspartyl-α-isobutylamide] | 4.58 | 5.44 | – | 89%
11 | CN(CC(=O)N[C@@H](CC(=O)O)C(=O)N[C@@H](CCCCN)C(=O)O)C(=O)CCCCCNC(=N)N [6-Guanidinohexanoyl-sarcosyl-L-aspartyl-L-lysine] | 6.47 | 5.39 | 86% | –
12 | CCN(CC(=O)N[C@@H](CC(=O)O)C(=O)N[C@H](C(=O)O)C(C)C)C(=O)CCCCCn1ccnc1 [6-(Imidazol-1-yl)-hexanoyl-N-ethylglycyl-L-aspartyl-L-valine] | 6.05 | 6.00 | 95% | –
13 | CC(C)[C@H](NC(=O)[C@H](CC(=O)O)NC(=O)CN(C)C(=O)CCCCCCNC(=N)N)C(=O)O [7-Guanidinoheptanoyl-L-sarcosyl-L-aspartyl-L-valine] | 5.29 | – | 14% | –
14 | CC(C)[C@H](NC(=O)CNC(=O)CNC(=O)[C@@H](N)CCCNC(=N)N)C(=O)O [L-arginyl glycyl glycyl-L-valine] (H-RGGV-OH) | < 3.70 | < 4.00 | – | 10%
15 | CC(C)[C@H](NC(=O)[C@H](CC(=O)O)NC(=O)CNC(=O)[C@@H](N)CCCCN)C(=O)O [L-Lysylglycyl-L-aspartyl-L-valine] (H-KGDV-OH) | 4.22 | < 4.60 | 8% | –
16 | CC(C)[C@H](NC(=O)[C@H](CC(=O)O)NC(=O)[C@@H](N)CCCNC(=N)N)C(=O)O [L-arginyl-L-aspartyl-L-valine] (H-Arg-Asp-Val-OH) | < 3.70 | 4.00 | – | 49%
17 | CCN(CC(=O)N[C@@H](CC(=O)O)C(=O)N[C@@H](CC(C)C)C(=O)O)C(=O)CCCCCNC(=N)N [6-guanidinohexanoyl-N-ethyl-glycyl-L-aspartyl-L-leucine] | 5.27 | 6.25 | 95.5% | –
18 | CC(C)[C@H](NC(=O)[C@H](CC(=O)O)NC(=O)CCCCCCCCN)C(=O)O [9-aminononanoyl-L-aspartyl-L-valine] | 4.52 | 4.72 | 10.1% | –
19 | CC(C)[C@H](NC(=O)[C@H](CC(=O)O)NC(=O)CNC(=O)CCCCNC(=N)N)C(=O)O [N-(5-guanidinopentanoyl)glycyl-L-aspartyl-L-valine] | 6.15 | 5.64 | – | 92%
20 | CC(C)[C@H](NC(=O)[C@H](CC(=O)O)NC(=O)CCCCCCCCCCNC(=N)N)C(=O)O [11-guanidinoundecanoyl-L-aspartyl-L-valine] | 4.77 | – | 36% | –

More lines, in order of rising pIC50 [1], values ahead:

Row | pIC50 [1] | pIC50 [2] | inhibition at 25 µM [2] | inhibition at 100 µM [2] | SMILES
21 | 4.40 | < 4.60 | 20% | – | CCC(CC)(NC(=O)[C@H](CC(=O)O)NC(=O)CCCCCCCCNC(=N)N)C(=O)N[C@@H](CCCNC(=N)N)C(=O)O [9-Guanidinononanoyl-L-aspartyl-α,α-diethyl-glycyl-L-arginine]
22 | 4.60 | 4.85 | – | 96% | N=C(N)NCCC[C@H](N)C(=O)NCC(=O)N[C@@H](CC(=O)O)C(=O)OCc1ccccc1 [L-arginylglycyl-L-aspartic acid α-benzyl ester]
23 | 4.84 | 5.11 | 81% | – | CC(C)CNC(=O)[C@H](CC(=O)O)NC(=O)CCCCCCCNC(=N)N [8-Guanidinooctanoyl-L-aspartic acid-α-isobutylamide]
24 | 4.99 | 4.88 | 75% | – | CC[C@@H](C)[C@@H](NC(=O)[C@H](CC(=O)O)NC(=O)CCCCCCCCNC(=N)N)C(=O)N[C@@H](CCCNC(=N)N)C(=O)O [9-Guanidinononanoyl-L-aspartyl-D-isoleucyl-L-arginine]
25 | 5.00 | 4.66 | 43% | – | CC(C)[C@H](NC(=O)[C@H](CC(=O)O)NC(=O)CNC(=O)CCCNC(=N)N)C(=O)O [4-Guanidinobutanoyl-glycyl-L-aspartyl-L-valine]
26 | 5.15 | 5.66 | 85% | – | N=C(N)NCCCCCCCCC(=O)N[C@@H](CC(=O)O)C(=O)NCC(=O)N[C@@H](CCCNC(=N)N)C(=O)O [9-Guanidinononanoyl-L-aspartyl-glycyl-L-arginine]
27 | 5.48 | 4.97 | 84% | – | CC(C)[C@H](NC(=O)[C@H](CC(=O)O)NC(=O)CN(C)C(=O)CCCNC(=N)N)C(=O)O [4-Guanidinobutanoyl-L-sarcosyl-L-aspartyl-L-valine]
28 | 5.72 | 6.64 | 93% | – | CCN(CC(=O)N[C@@H](CC(=O)O)C(=O)N[C@@H](CCCNC(=N)N)C(=O)O)C(=O)CCCCNC(=N)N [5-guanidino-N-(ethyl)-glycyl-L-aspartyl-L-arginine]
29 | 6.08 | 6.54 | 96% | – | CC(C)[C@H](NC(=O)[C@H](CC(=O)O)NC(=O)C=CCCCCCNC(=N)N)C(=O)O [8-Guanidinooct-2-enoyl-L-aspartyl-L-valine]
30 | 6.11 | 5.80 | 93% | – | N=C(N)NCCCCCCCC(=O)N[C@@H](CC(=O)O)C(=O)N[C@@H](CCCCN)C(=O)O [8-Guanidinooctanoyl-L-aspartyl-L-lysine]
31 | 6.24 | 5.77 | 0.98% | – | CC(C)[C@H](NC(=O)[C@H](CC(=O)O)NC(=O)CCCCCCCCCCN)C(=O)O [11-Aminoundecanoyl-L-aspartyl-L-valine] (H-[Aun]-Asp-Val-OH)
32 | 6.42 | 5.25 | 84% | – | CC(C)[C@H](NC(=O)[C@H](CC(=O)O)NC(=O)CN(C)C(=O)CCCCCn1ccnc1-c1ccccc1)C(=O)O [6-(2-Phenylimidazol-1-yl)hexanoyl-sarcosyl-L-aspartyl-L-valine]
33 | 6.50 | 5.31 | 89% | – | CCc1nccn1CCCCCC(=O)N(C)CC(=O)N[C@@H](CC(=O)O)C(=O)N[C@H](C(=O)O)C(C)C [6-(2-Ethylimidazol-1-yl)hexanoyl-sarcosyl-L-aspartyl-L-valine]
34 | 6.74 | 5.90 | 95% | – | CCN(CC(=O)N[C@@H](CC(=O)O)C(=O)N[C@@H](Cc1ccc(O)cc1)C(=O)O)C(=O)CCCCCNC(=N)N [6-Guanidinohexanoyl-N-(ethyl)glycyl-L-aspartyl-L-tyrosine]
35 | 6.82 | 5.82 | 95% | – | CC(C)[C@H](NC(=O)[C@H](CC(=O)O)NC(=O)CN(C)C(=O)CCCCn1ccnc1)C(=O)O [5-(Imidazol-1-yl)-pentanoyl-sarcosyl-L-aspartyl-L-valine]
